In assay [1] the test system is dihydroceramides. The assay is described as follows: lipidomic analysis of ceramides and dihydroceramides in T6PNE cells. The assay is classed as cell-based, human. The note with it: 2 days after treatment. How it is done:
Ceramides and dihydroceramides were measured in the UCSD Lipidomics Core Facility as previously described (Quehenberger et al.). Briefly, samples were extracted using the butanol: methanol (BUME) method. The lipid layer was collected and run on a Thermo-Vanquish UPLC (Thermo Scientific) with a Cortecs T3 (C18), 2.1 mm×150 mm; 1.8 uT3 column and a binary solvent system. Mass spectrometry employed a Thermo Q Exactive instrument with MS/MS data dependent acquisition scan mode and LipidSearch software (Thermo Fisher Scientific).

Assay [2] relates to HNF4a mRNA. The assay is described as follows: HNF4a mRNA in primary human hepatocytes. It is filed as cell-based. Particulars: high fat media, 5, 15, 40 µM, Day 4 to Day 10. The protocol:
Experiments with primary human hepatocytes were performed by CN-Bio (Cambridge, UK). Primary human hepatocytes (PHHs), human Kupffer cells (HKs) and human stellate cells (HSCs) were seeded onto CN-Bio's PhysioMimix LC12 MPS culture plates at 6×10^5 cells for PHHs and 6×10^4 cells for HKs and HSCs in 1.6 ml of CN-Bio's HEP-lean media with 5% FCS. Throughout the experiment the cells were maintained at a flow rate of 1 μl/s. After 24 h (Day 1) of seeding, the media was changed to HEP-lean media and the cells were incubated until day 4 to allow the cells to form microtissues. At day 4 post seeding, media was changed to HEP-fat media and treated with DMSO or NCT (5, 15, 40 μM). Media was replaced on days 6 and 8. Cells were harvested on day 10 for RNA extraction. Data are presented as mean ±SEM of three or more samples as indicated. Statistical significance was assessed using Student's t-test, ANOVA or R^2 coefficient of correlation.

For assay [3], the system named is hepatic steatosis. The assay is described as follows: oral administration in mice (hepatic steatosis). It is filed as in vivo, mouse. The note with it: subsequent studies.
In assay [4] the test system is p62. The assay is described as follows: p62 Western blot in T6PNE cells. Particulars: NCT 10 μM, RA 10 μM, fenretinide. It is filed as cell-based, human. How it is done:
Whole-cell extracts were prepared by incubation in RIPA buffer (Invitrogen) containing protease inhibitors (Calbiochem, San Diego, Calif.). Protein ([…]) was separated on 12% or 16% Tri-Glycine gels (Invitrogen) and transferred to Immobilon P membrane (0.2 μm pore, Millipore). After 1 h in phosphate-buffered saline-Tween (PBST) with 3% milk, membrane was incubated with antibodies to HNF4α (mouse, Novus, 1:1000), LC3B (rabbit, Novus, 1:500), p62 (SQSTM1, mouse, Santa Cruz, 1:1000) or β-actin (mouse, Santa Cruz, 1:2000), followed by secondary antibody conjugated to horseradish peroxidase (1:5000, Jackson Immune).
(In western blotting, separated proteins are transferred to a membrane and probed.)

Entries after “also recorded” stand apart in the source; their conditions may differ.

For the compound `O=C(/C=C/c1ccc(O)c(O)c1)NCCc1ccc(O)cc1` [NCT, N-trans-caffeoyltyramine], the dihydroceramide production result in assay [1] is “multiple dihydroceramides were increased; also recorded: induced multiple identical dihydroceramides”; in assay [1] (listed as N-trans-caffeoyltyramine), “Dihydroceramide was induced”. Further, the “HNF4a mRNA” value in assay [2] was “significantly induced”. Further, the “hepatic steatosis after oral administration” value in assay [3] is listed as “effective in reducing hepatic steatosis in mice”. Also, the “p62 protein expression normalized to actin” value in assay [4] was “induced increases”.

Source of the values: patent US20220362182A1, “METHODS FOR REVERSING HEPATIC STEATOSIS” (BRIGHTSEED, INC., priority 2020, published 2022).
